One experiment has as its system Scytalidium dimidiatum. Briefly: Antifungal Activity Test 1: MIC by broth microdilution method (Alamar Blue). The class given is cell-based. Particulars: for MIC: growth inhibited by 80% or more; for MIC90: concentration to be MIC in 9 strains out of the 10 strains (90%). From the text: Scytalidium dimidiatum strain of clinical isolate obtained by separation and identification from nail or stratum corneum of patients with superficial mycosis was used. The fungi pre-cultured on an SDA medium was suspended in 0.1% (w/v) Tween 80-containing sterile saline and the suspension was filtered through gauze to collect arthrospore. This was suspended in 0.1% (w/v) Tween 80-containing sterile saline, and added to a 20% Alamar Blue-containing medium to 2×10^4 cells/mL to give a fungal inoculum solution.
(§1) Each drug was used after dissolving in DMSO (dimethyl sulfoxide).
(§2) The minimum inhibitory concentration (MIC) was measured by a broth microdilution method. That is, RPMI1640 medium (Sigma-Aldrich) was buffered with 0.165 M morpholine propanesulfonic acid (MOPS, Wako Pure Chemical Industries, Ltd.) to pH 7.0, and a given amount of a solution of the drug in DMSO was added thereto to prepare 2-fold dilution series within the range of 0.00098-4 μg/mL. This was added to a 96-well microplate by 100 μL, a fungal inoculum solution (100 μL, final concentration of fungi to be added: 1.0×10^4 cells/mL) was added, and the mixture was cultured at 35° C. An Alamar Blue reagent was added in advance to the culture medium (final addition concentration: 10%) and, at the time point when the Alamar Blue reagent in the drug-free growth control group changed from blue to red, the culture was discontinued and the absorbance (differential optical density at 570 nm based on 590 nm served as reference) measured. The minimum concentration of the drug that inhibited the growth of the fungus in the growth control group by 80% or more was taken as MIC. The concentration to be MIC (MIC90) in 9 strains out of the 10 strains (90%) measured was determined.
Reference documents for measurement method: Takako Shinoda et al.: opinion proposed by Committee for Clinical Laboratory Standards of The Japanese Society for Medical Mycology (1995-1997), Method for antifungal susceptibility testing of filamentous fungus, Medical Mycology Journal, 40: 239-257, 1999. Clinical Laboratory Standards Institute/National Committee for Clinical Laboratory Standards. Reference method for broth dilution antifungal susceptibility testing of filamentous fungus. Approved Standard M38-A2. Wayne, Pa.: National Committee for Clinical Laboratory Standards, 2008. Test Results
A general note: Broth dilution looks for growth in wells or tubes with falling amounts of substance.

In the next experiment the test system is Scytalidium hyalinum. Briefly: Antifungal Activity Test 2: MIC by broth microdilution method (Alamar Blue). Type of experiment: cell-based. As for the experimental part: as §2
Scytalidium hyalinum strain of clinical isolate available from CBS (Netherlands) was used. The fungus was pre-cultured in an SDA medium, 0.1% (w/v) Tween 80-containing sterile saline was added to give a suspension, which was filtered through gauze to collect arthrospore. This was suspended in 0.1% (w/v) Tween 80-containing sterile saline, and added to a 20% Alamar Blue-containing medium to 2×10^4 cells/mL to give a fungal inoculum solution.
as §1
The test method was the same as in the aforementioned antifungal activity test 1, and the minimum concentration of the drug that inhibited the growth of the fungus in the growth control group by 80% or more was taken as MIC. The MIC range of the 4 strains measured and the geometric mean (GM) of each drug were determined.

[1] abbreviates: Neoscytalidium dimidiatum, clinical isolate 530129, read-out: MIC.
The mark [2] stands for this setting: Neoscytalidium dimidiatum, clinical isolate 530142, read-out: MIC.
Where [3] appears, read: Neoscytalidium dimidiatum, clinical isolate 530251, read-out: MIC.
The mark [4] stands for this setting: Neoscytalidium dimidiatum, clinical isolate 530621, read-out: MIC.
Setting [5] is: Neoscytalidium dimidiatum, clinical isolate 530633, read-out: MIC.
[6] abbreviates: Neoscytalidium dimidiatum, clinical isolate 530914, read-out: MIC.
Where [7] appears, read: Neoscytalidium dimidiatum, clinical isolate 530946, read-out: MIC.
[8] abbreviates: Neoscytalidium dimidiatum, clinical isolate 530999, read-out: MIC.
[9] abbreviates: Neoscytalidium dimidiatum, clinical isolate 531581, read-out: MIC.
[10] abbreviates: Neoscytalidium dimidiatum, clinical isolate 531869, read-out: MIC.
The mark [11] stands for this setting: Neoscytalidium dimidiatum, read-out: MIC90.
Setting [12] is: Neoscytalidium hyalinum, clinical isolate CBS200.88, growth inhibited by 80% or more, read-out: MIC.
The mark [13] stands for this setting: Neoscytalidium hyalinum, clinical isolate CBS545.95, growth inhibited by 80% or more, read-out: MIC.
[14] abbreviates: Neoscytalidium hyalinum, clinical isolate CBS601.85, growth inhibited by 80% or more, read-out: MIC.
The mark [15] stands for this setting: Neoscytalidium hyalinum, clinical isolate CBS619.84, growth inhibited by 80% or more, read-out: MIC.
Where [16] appears, read: Neoscytalidium hyalinum, geometric mean of the 4 strains measured, read-out: GM (geometric mean of MIC).
[17] abbreviates: Neoscytalidium hyalinum, range of the 4 strains measured, read-out: MIC range.

≈ marks a conversion by molar mass, not a printed value. Where two headings read alike, the source gives them in different places.

A word on the MIC: it is the lowest concentration that inhibits growth of the organism. As usually defined, the MIC90 is an inhibitory concentration at the 90% level, which refers to growth in some studies and to a panel of isolates in others.

Consider `CCC(C)(C)c1ccc(CC(C)CN2C[C@@H](C)O[C@@H](C)C2)cc1` (some centres unmarked) [AMO, amorolfine], for which the MIC in the experiment on Scytalidium dimidiatum (setting [1]) was determined as 0.5 µg/mL (≈ 1.57 µM); with Scytalidium dimidiatum (setting [2]), 1 µg/mL (≈ 3.15 µM); in the experiment with Scytalidium dimidiatum (setting [3]), 2 µg/mL (≈ 6.3 µM); with Scytalidium dimidiatum (setting [4]), 1 µg/mL (≈ 3.15 µM); with Scytalidium dimidiatum (setting [5]) it was 0.5 µg/mL (≈ 1.57 µM); with Scytalidium dimidiatum (setting [6]) it was 2 µg/mL (≈ 6.3 µM). For the same compound, the MIC with Scytalidium dimidiatum (setting [7]) worked out at 1 µg/mL (≈ 3.15 µM); in the experiment on Scytalidium dimidiatum (setting [8]), 1 µg/mL (≈ 3.15 µM); with Scytalidium dimidiatum (setting [9]) it was 0.5 µg/mL (≈ 1.57 µM); in the experiment with Scytalidium dimidiatum (setting [10]), 0.5 µg/mL (≈ 1.57 µM); in the experiment on Scytalidium hyalinum (setting [12]), 2 µg/mL (≈ 6.3 µM); in the experiment with Scytalidium hyalinum (setting [13]) it was 2 µg/mL (≈ 6.3 µM). In addition, the MIC in the experiment with Scytalidium hyalinum (setting [14]), in the experiment on Scytalidium hyalinum (setting [15]), in the experiment with Scytalidium hyalinum (setting [16]) and with Scytalidium hyalinum (setting [17]) was 2 µg/mL (≈ 6.3 µM) throughout. Also, the MIC90 in the experiment on Scytalidium dimidiatum (setting [11]) amounted to 2 µg/mL (≈ 6.3 µM).

With `C[C@@H]1[C@H](O)[C@@H](C)/C=C/C=C/C=C/C=C/C=C/C=C/C=C/[C@H](O[C@@H]2O[C@H](C)[C@@H](O)[C@H](N)[C@@H]2O)C[C@@H]2O[C@](O)(C[C@@H](O)C[C@@H](O)[C@H](O)CC[C@@H](O)C[C@@H](O)CC(=O)O[C@H]1C)C[C@H](O)[C@H]2C(=O)O` [AMPB, amphotericin B], the MIC in the experiment on Scytalidium dimidiatum (clinical isolate 530129) was 0.25 µg/mL (≈ 0.271 µM); in the experiment with Scytalidium dimidiatum (clinical isolate 530142), 0.13 µg/mL (≈ 0.141 µM); against Scytalidium dimidiatum (clinical isolate 530251), 0.25 µg/mL (≈ 0.271 µM); with Scytalidium dimidiatum (clinical isolate 530621), 0.25 µg/mL (≈ 0.271 µM); with Scytalidium dimidiatum (clinical isolate 530633) it was 0.25 µg/mL (≈ 0.271 µM); with Scytalidium dimidiatum (clinical isolate 530914), 0.13 µg/mL (≈ 0.141 µM). The MIC came to 0.25 µg/mL (≈ 0.271 µM) in the experiment on Scytalidium dimidiatum (clinical isolate 530946); 0.5 µg/mL (≈ 0.541 µM) in the experiment on Scytalidium dimidiatum (clinical isolate 530999); 0.25 µg/mL (≈ 0.271 µM) with Scytalidium dimidiatum (clinical isolate 531581); 0.25 µg/mL (≈ 0.271 µM) with Scytalidium dimidiatum (clinical isolate 531869); 0.5 µg/mL (≈ 0.541 µM) against Scytalidium hyalinum (clinical isolate CBS200.88, growth inhibited by 80% or more); 1 µg/mL (≈ 1.08 µM) against Scytalidium hyalinum (clinical isolate CBS545.95, growth inhibited by 80% or more). The MIC was determined as 0.5 µg/mL (≈ 0.541 µM) in the experiment with Scytalidium hyalinum (clinical isolate CBS601.85, growth inhibited by 80% or more) and 0.5 µg/mL (≈ 0.541 µM) with Scytalidium hyalinum (clinical isolate CBS619.84, growth inhibited by 80% or more). In the experiment with Scytalidium dimidiatum, this compound returned an MIC90 of 0.25 µg/mL (≈ 0.271 µM). Moreover, the “GM (geometric mean of MIC)” value in the experiment on Scytalidium hyalinum (geometric mean of the 4 strains measured) turned out to be 0.59 µg/mL. This compound showed an MIC range in the experiment on Scytalidium hyalinum (range of the 4 strains measured) of 0.5 to 1 µg/mL.

Regarding `c1ccc(-c2ccc(C(c3ccccc3)n3ccnc3)cc2)cc1` (centres unmarked) [BFZ, bifonazole], the MIC in the experiment with Scytalidium dimidiatum (setting [1]) stood at 0.25 µg/mL (≈ 0.805 µM); with Scytalidium dimidiatum (setting [2]), 0.13 µg/mL (≈ 0.419 µM); in the experiment on Scytalidium dimidiatum (setting [3]), 0.25 µg/mL (≈ 0.805 µM); with Scytalidium dimidiatum (setting [4]) it was 0.25 µg/mL (≈ 0.805 µM); in the experiment on Scytalidium dimidiatum (setting [5]), 0.13 µg/mL (≈ 0.419 µM); with Scytalidium dimidiatum (setting [6]), 0.13 µg/mL (≈ 0.419 µM). For the same compound, the MIC in the experiment with Scytalidium dimidiatum (setting [7]) is 0.25 µg/mL (≈ 0.805 µM); with Scytalidium dimidiatum (setting [8]), 0.13 µg/mL (≈ 0.419 µM); in the experiment with Scytalidium dimidiatum (setting [9]) it was 0.25 µg/mL (≈ 0.805 µM); in the experiment with Scytalidium dimidiatum (setting [10]), 0.13 µg/mL (≈ 0.419 µM); with Scytalidium hyalinum (setting [12]), 0.063 µg/mL (≈ 0.203 µM); with Scytalidium hyalinum (setting [13]) it was 0.063 µg/mL (≈ 0.203 µM). Besides, the MIC with Scytalidium hyalinum (setting [14]) is 0.031 µg/mL (≈ 0.0999 µM); with Scytalidium hyalinum (setting [15]) it was 0.13 µg/mL (≈ 0.419 µM); in the experiment with Scytalidium hyalinum (setting [16]), 0.063 µg/mL (≈ 0.203 µM); in the experiment on Scytalidium hyalinum (setting [17]), 0.031 to 0.13 µg/mL (≈ 0.0999 to 0.419 µM). In addition, the MIC90 in the experiment on Scytalidium dimidiatum (setting [11]) was 0.25 µg/mL (≈ 0.805 µM).

For the compound `Clc1ccccc1C(c1ccccc1)(c1ccccc1)n1ccnc1` [CTZ, clotrimazole], the MIC in the experiment with Scytalidium dimidiatum (setting [1]) came to 0.5 µg/mL (≈ 1.45 µM); in the experiment on Scytalidium dimidiatum (setting [2]) it was 0.5 µg/mL (≈ 1.45 µM); with Scytalidium dimidiatum (setting [3]) it was 0.25 µg/mL (≈ 0.725 µM); in the experiment with Scytalidium dimidiatum (setting [4]), 0.5 µg/mL (≈ 1.45 µM); in the experiment with Scytalidium dimidiatum (setting [5]), 0.5 µg/mL (≈ 1.45 µM); in the experiment with Scytalidium dimidiatum (setting [6]), 0.5 µg/mL (≈ 1.45 µM). Also, the MIC with Scytalidium dimidiatum (setting [7]) is 0.5 µg/mL (≈ 1.45 µM); in the experiment on Scytalidium dimidiatum (setting [8]), 0.25 µg/mL (≈ 0.725 µM); with Scytalidium dimidiatum (setting [9]) it was 0.25 µg/mL (≈ 0.725 µM); with Scytalidium dimidiatum (setting [10]) it was 0.25 µg/mL (≈ 0.725 µM); in the experiment with Scytalidium hyalinum (setting [12]), 0.13 µg/mL (≈ 0.377 µM); in the experiment on Scytalidium hyalinum (setting [13]), 0.13 µg/mL (≈ 0.377 µM). Besides, the MIC is 0.13 µg/mL (≈ 0.377 µM) in the experiment with Scytalidium hyalinum (setting [14]), 0.25 µg/mL (≈ 0.725 µM) in the experiment on Scytalidium hyalinum (setting [15]), 0.15 µg/mL (≈ 0.435 µM) with Scytalidium hyalinum (setting [16]) and 0.13 to 0.25 µg/mL (≈ 0.377 to 0.725 µM) in the experiment with Scytalidium hyalinum (setting [17]). Moreover, the MIC90 in the experiment with Scytalidium dimidiatum (setting [11]) was found to be 0.5 µg/mL (≈ 1.45 µM).
